Where two headings read alike, the source gives them in different places.

The source of these data is patent US20240300886A1, “ARYLCYCLOHEXYLAMINE DERIVATIVES AND THEIR USE IN THE TREATMENT OF PSYCHIATRIC DISORDERS” (GILGAMESH PHARMACEUTICALS, INC., priority 2021, published 2024).

A short description of data set [1]: Comparative metabolism/PK of 2R and deuterated 7R in rats after oral administration. The format is in vivo, Sprague Dawley rats. Particulars: for concentration at 0.083 h / concentration at 0.25 h / concentration at 0.5 h / concentration at 1 h / concentration at 2 h / concentration at 4 h: oral; for concentration at 0.083 h: 0.083 h after 10 mg/kg po of 2R or 7R; for concentration at 0.25 h: 0.25 h after 10 mg/kg po of 2R or 7R; for concentration at 0.5 h: 0.5 h after 10 mg/kg po of 2R or 7R; for concentration at 1 h: 1 h after 10 mg/kg po of 2R or 7R; for concentration at 2 h: 2 h after 10 mg/kg po of 2R or 7R; for concentration at 4 h: 4 h after 10 mg/kg po of 2R or 7R. The protocol: Animals. Male Sprague Dawley rats were used in these studies. Animals were randomly assigned to treatment groups and were fasted for 4 h before dosing.
Drugs. Test compounds 2R and 7R were dissolved in a vehicle consisting of normal saline. They were then administered orally (po) at a dose of 10 mg/kg (calculated based on freebase), and at a volume of 5 mL/kg body weight.
Sample Collection and Bioanalysis. Blood samples (approximately 60 μL) were collected under light isoflurane anesthesia (Surgivet®) from the retro orbital plexus at 0.08, 0.25, 0.5, 1, 2, 4, 8, and 24 h (4 animals per time point). Immediately after blood collection, plasma was harvested by centrifugation at 4,000 rpm for 10 min at 4° C. and samples were stored at −70±10° C. until bioanalysis. Following blood collection, animals were immediately sacrificed, the abdominal vena-cava was cut open, and the whole body was perfused from the heart using 10 mL of normal saline, and brain samples were collected from all animals. After isolation, brain samples were rinsed three times in ice-cold normal saline (for 5-10 seconds/rinse using ˜5-10 mL normal saline in disposable petri dish for each rinse) and dried on blotting paper. Brain samples were homogenized using ice-cold phosphate-buffered saline (pH 7.4) Total homogenate volume was three times the tissue weight. All homogenates were stored at −70±10° C. until bioanalysis. For bioanalysis, 25 μL aliquots of plasma/brain study samples or spiked plasma/brain calibration standards were added to individual pre-labeled micro-centrifuge tubes followed by 100 μL of an internal standard solution (glipizide, 500 ng/mL in acetonitrile) except for blanks, where 100 μL of acetonitrile was added. Samples were vortexed for 5 minutes and then centrifuged for 10 minutes at 4,000 rpm at 4° C. Following centrifugation, 100 μL of each clear supernatant was transferred to a 96 well plate and analyzed with a fit-for-purpose LC-MS/MS method, with authentic samples of each analyte used for calibration and identification. Concentrations of parent compound (2R or 7R) and metabolite 1R were determined in all samples.
Data Analysis. Pharmacokinetic parameters were estimated using the non-compartmental analysis tool of Phoenix® WinNonlin software (Ver 8.0).

The nature of data set [2]: Metabolic stability in rat liver microsomes (RLM). Format: in vitro ADME, Sprague Dawley rats. The method, then: (§1) RLM Stability. Pooled RLM from male Sprague Dawley rats (XenoTech R1000) were used. Microsomal incubations were carried out in multi-well plates. Liver microsomal incubation medium consisted of PBS (100 mM, pH 7.4), MgCl2 (1 mM), and NADPH (1 mM), with 0.50 mg of liver microsomal protein per mL. Control incubations were performed by replacing the NADPH-cofactor system with PBS. Test compounds (1 μM, final solvent concentration 1.0%) were incubated with microsomes at 37° C. with constant shaking. Six time points over 60 minutes were analyzed, with 60 μL aliquots of the reaction mixture being drawn at each time point. The reaction aliquots were stopped by adding 180 μL of cold (4° C.) acetonitrile containing 200 ng/mL tolbutamide and 200 ng/mL labetalol as internal standards (IS), followed by shaking for 10 minutes, and then protein sedimentation by centrifugation at 4,000 rpm for 20 minutes at 4° C. Supernatant samples (80 μL) were diluted with water (240 μL) and analyzed for parent compound remaining using a fit-for-purpose liquid chromatography-tandem mass spectrometry (LC-MS/MS) method.
(§2) Data Analysis. The elimination constant (kel), half-life (t1/2) and intrinsic clearance (Clint) were determined in a plot of […] versus time, using linear regression analysis.

A short description of data set [3]: Metabolic stability in mouse liver microsomes (MLM). Particulars: male, CD-1, mouse, pooled mouse liver microsomes, pH 7.4, 1 μM compound, 0.50 mg protein/mL, NADPH. Format: in vitro ADME, CD-1 mice. The protocol: as §1, with “MLM” for “RLM”, “CD-1 mice” for “Sprague Dawley rats”, “M1000)” for “R1000)”
Data Analysis. The elimination constant (kel), half-life (t1/2) and intrinsic clearance (Clint) were determined in a plot of ln(AUC) versus […], using linear regression analysis.

Data set [4] is described as follows: Metabolic stability in human liver microsomes (HLM). The format is in vitro ADME. Particulars: 0.50 mg protein/mL, NADPH; for Clint: 1 μM compound; for half-life at 1 μM: both sexes, human, pooled human liver microsomes, pH 7.4, 1 μM compound. The method, then:
HLM Stability. Pooled HLM from adult male and female donors (Corning 452117) were used. Microsomal incubations were carried out in multi-well plates. Liver microsomal incubation medium consisted of PBS (100 mM, pH 7.4), MgCl2 (1 mM), and NADPH ([…]), with 0.50 mg of liver microsomal protein per mL. Control incubations were performed by replacing the NADPH-cofactor system with PBS. Test compounds (1 μM, final solvent concentration 1.0%) were incubated with microsomes at 37° C. with constant shaking, Six time points over 60 minutes were analyzed, with 60 μL aliquots of the reaction mixture being drawn at each time point. The reaction aliquots were stopped by adding 180 μL of cold (4° C.) acetonitrile containing 200 ng/mL tolbutamide and 200 ng/mL labetalol as internal standards (IS), followed by shaking for 10 minutes, and then protein sedimentation by centrifugation at 4,000 rpm for 20 minutes at 4° C. Supernatant samples (80 μL) were diluted with water (240 μL) and analyzed for parent compound remaining using a fit-for-purpose liquid chromatography-tandem mass spectrometry (LC-MS/MS) method.
as §2
For orientation: Microsomes from liver hold many membrane-bound enzymes, among them those of drug oxidation.

Where [5] appears, read: male, Sprague Dawley, rat, brain, 10 mg/kg, rat brain, read-out: Mean brain concentration.
[6] abbreviates: male, Sprague Dawley, rat, plasma, 10 mg/kg, rat plasma, read-out: Mean plasma concentration.
Setting [7] is: rat brain after 10 mg/kg po of 2R or 7R, parent or metabolite 1R as labelled.
[8] abbreviates: male, Sprague Dawley, rat, pooled rat liver microsomes, pH 7.4, 1 μM compound, 0.50 mg protein/mL, NADPH.

Turning to `[2H]C([2H])([2H])N[C@@]1(c2ccc(F)cc2)CCCCC1=O` [Compound 7R], in data set [1] (setting [5]), the concentration at 0.083 h came out at 98 ng/g, the concentration at 0.25 h was determined as 2090 ng/g, the concentration at 0.5 h was found to be 2200 ng/g and the concentration at 1 h turned out to be 1770 ng/g. Further, in data set [1] (setting [5]), the concentration at 2 h is 1420 ng/g and the concentration at 4 h was determined as 236 ng/g. Also, in data set [1] (male, Sprague Dawley, rat, brain, po, 10 mg/kg, rat brain after 10 mg/kg po of 2R or 7R, parent or metabolite 1R as labelled, read-out: t1/2 (brain)), the half-life turned out to be 1.12 h. In data set [1] (setting [6]), the concentration at 0.083 h is 65 ng/mL, the concentration at 0.25 h turned out to be 502 ng/mL, the concentration at 0.5 h was determined as 799 ng/mL and the concentration at 1 h is 564 ng/mL. In addition, in data set [1] (setting [6]), the concentration at 2 h was determined as 396 ng/mL and the concentration at 4 h was 68 ng/mL. Also, in data set [1] (male, Sprague Dawley, rat, plasma, po, 10 mg/kg, rat plasma after 10 mg/kg po of 2R or 7R, parent or metabolite 1R as labelled), the Cmax (in general, the peak of the concentration-time curve) was found to be 799 ng/mL. Moreover, the AUC(0-t) in data set [1] (male, Sprague Dawley, rat, plasma, po, 10 mg/kg, rat plasma after 10 mg/kg po of 2R or 7R, parent or metabolite 1R as labelled, read-out: AUC0-last (plasma) (converted)) is 1650 ng·h/mL. In addition, the half-life in data set [1] (male, Sprague Dawley, rat, plasma, po, 10 mg/kg, rat plasma after 10 mg/kg po of 2R or 7R, parent or metabolite 1R as labelled, read-out: t1/2 (plasma)) turned out to be 1.08 h. In data set [1] (setting [7]), the “AUC0-last (brain)” value is 330347 ng·min/g and the “Cmax (brain)” value is 2197 ng/g. In addition, in data set [1] (rats, 10 mg/kg po), the “exposure (AUC) in plasma and brain compared to non-deuterated 2R” value is “greater exposure”.
As to `Cc1ccc(C2(N)CCCCC2=O)cc1` (centres unmarked) [Compound 10, 2-amino-2-(p-tolyl)cyclohexan-1-one], in data set [2] (setting [8]), the half-life at 1 μM was 0.06 h.
The compound `Cc1cccc(C2(N)CCCCC2=O)c1` (centres unmarked) [Compound 12, 2-amino-2-(m-tolyl)cyclohexan-1-one] registered a half-life at 1 μM in data set [2] (setting [8]) of 0.12 h.
For the compound `NC1(c2cccc(F)c2)CCCCC1=O` (racemic) [Compound 3, 2-amino-2-(3-fluorophenyl)cyclohexan-1-one], the “metabolic stability in RLM (in words)” value in data set [2] is listed as “much greater stability”.
For `NC1(c2ccc(F)cc2)CCCCC1=O` (racemic) [Compound 1, 2-amino-2-(4-fluorophenyl)cyclohexan-1-one], in data set [3], the half-life at 1 μM was over 2.42 h and the microsomal CLint (usually the capacity of the preparation to metabolise the compound, expressed as a volume cleared per time) at 1 μM is under 9.6 µL/min/mg. Further, the “metabolic stability in RLM (in words)” value in data set [2] is listed as “much greater stability”. Further, in data set [2] (setting [8]), the half-life at 1 μM was over 2.42 h and the intrinsic clearance (microsomal CLint) at 1 μM is under 9.6 µL/min/mg. In data set [4], the Clint is recorded as under 9.6 μL/min/m and the half-life at 1 μM is over 2.42 h.
In data set [2] (setting [8]), `CNC1(c2ccc(C)cc2)CCCCC1=O` (centres unmarked) [Compound 11, 2-(methylamino)-2-(p-tolyl)cyclohexan-1-one] came in with a half-life at 1 μM of 0.055 h.
For `CNC1(c2ccc(F)cc2)CCCCC1=O` (racemic) [Compound 2], the half-life at 1 μM in data set [3] was 1.68 h; in data set [2] (setting [8]), 1.18 h; in data set [4], over 2.42 h. The “metabolic stability in RLM (in words)” value in data set [2] is reported as “much greater stability”. For the same compound, in data set [4], the Clint is under 9.6 μL/min/m.
